From publication PMC9745799, “Polymyxin Stereochemistry and Its Role in Antibacterial Activity and Outer Membrane Disruption” (ACS Infectious Diseases, 2022)
Positions of bridges follow the written chain, without caps; N, C: chain ends. Non-standard residues stand in square brackets, D forms with d. Residues, ends and D or L forms follow the SMILES beside them. dDab = NCC[C@@H](N)C(=O)O

Columns and labels:
[1] = system: polymyxin-resistant (mcr-1 positive) E. coli; experiment: microbe, parasite or virus in culture; assay type: cell-based; settings: for MIC in combination (rifampicin): E. coli mcr-1
Description: (§1) Selected Gram-negative bacterial strains were taken from glycerol stocks and grown overnight on blood agar. A single colony was inoculated in TSB broth at 37 °C until an optical density of 0.5 at 600 nm (OD600) was reached. The bacterial suspension was diluted in freshly prepared CAMHB to 10^6 CFU/mL. Compounds were diluted along the plate, using 25 μL of CAMHB for each dilution. Antibiotic concentrations were prepared separately in a multiwell reservoir, including a control without antibiotic. Of each antibiotic stock, 25 μL was added to three columns to obtain triplicates for every condition. To each 50 μL containing well was then added 50 μL of the 10^6 CFU/mL bacterial suspension, and the plates were sealed with breathable seals. After incubation for 18 h at 37 °C while shaking, the seals were removed and the density of the bacterial suspensions was measured at 600 nm (OD600) using a Tecan Spark plate reader. The OD600 values were transformed to a 2D gradient with the negative control as the minimum and the positive control as the maximum. The FICI was calculated using the following equation: [drawing 1] with MSCant and MSCcomp indicating the optimal synergistic concentration of antibiotic and compound and MICant and MICcomp, the corresponding MICs of the individual compounds. An FICI ≤ 0.5 indicates synergy.[48]

[2] = system: polymyxin-sensitive E. coli ATCC 25922; experiment: microbe, parasite or virus in culture; assay type: cell-based
Description: as §1

[3] = system: E. coli ATCC 25922 (smooth LPS); experiment: NPN uptake assay (outer membrane disruption); assay type: cell-based; settings: NPN fluorescence after 1 h at RT, 5 mM HEPES pH 7.2 + 20 mM glucose, triplicates, result in words
Description: (§2) Bacteria were taken from glycerol stocks and grown in TSB overnight. Cultures were diluted either 50 or 100 times in Lysogeny Broth (LB) and grown at 37 °C to an OD600 of 0.5. Test compounds were prepared in HEPES buffer (5 mM, pH 7.2 + 20 mM glucose) and serially diluted (25 μL per well) on 1/2 the area of black 96-well plates with a transparent bottom. N-Phenyl-1-naphthylamine (NPN) was dissolved in acetone (0.5 mM) and diluted to 40 μM in HEPES buffer (5 mM, pH 7.2 + 20 mM glucose). 25 μL of the NPN solution was added to each well. The bacterial suspension was spin down (1000g, 10 min), and the remaining cell pellet was resuspended in half the original volume of HEPES buffer (5 mM, pH 7.2 + 20 mM glucose). 50 μL of bacterial suspension was added to each well. NPN fluorescence was measured after 1 h of incubation at RT with λex 355 ± 20 nm and λem 420 ± 20 nm. The measured fluorescence signal was corrected for NPN fluorescence in the absence of compounds (bacteria in buffer + NPN) and presented as relative fluorescence units (RFUs).

[4] = system: E. coli BW25113 (rough LPS); experiment: NPN uptake assay (outer membrane disruption); assay type: cell-based; settings: NPN fluorescence after 1 h at RT, 5 mM HEPES pH 7.2 + 20 mM glucose, triplicates, result in words
Description: as §2

[5] = system: LPS from E. coli (O55:B5); experiment: Isothermal titration calorimetry (ITC), LPS binding; settings: compound (1 mM) into LPS (20 µM), 20 mM HEPES pH 7, 37 °C, mean and SD of three experiments
Description: Stock solutions of LPS (10 mg/mL, 0.5 mM) were prepared in 20 mM HEPES at pH 7 by suspension, sonication, and temperature cycling between 4 and 60 °C and stored overnight prior to use. LPS from E. coli (O55:B5) was used. Lipopeptide solutions (1 mM in 20 mM HEPES, pH 7) were titrated into a suspension of LPS (0.020 mM) in the same buffer. Control titrations included the titration of peptide into buffer and buffer into the LPS suspension to determine the corresponding heat of dilution. All binding experiments were performed using a MicroCal PEAQ-ITC Automated microcalorimeter (Malvern Panalytical Ltd., Malvern, UK). The samples were equilibrated to 37 °C prior to measurement. The titrations were conducted at 37 °C under constant stirring at 750 rpm. Each experiment consisted of an initial injection of 0.3 μL followed by 25 separate injections of 1.5 μL into the sample cell of 200 μL. The time between each injection was 180 s, and the measurements were performed with the reference power set at 5 μcal s^–1 and the feedback mode set at “low”. For all calculations performed, an estimated molecular weight of 20 kDa for LPS was applied. The calorimetric data thus obtained were analyzed using MicroCal PEAQ-ITC Analysis Software Version 1.20 (Malvern Panalytical Ltd., Malvern, UK), where the integrated heat signal is corrected for the heat of dilution of the titrant.

[6] = system: E. coli JW3596 (ΔwaaC); assay type: cell-based; settings: truncated LPS, CLSI microbroth dilution, CAMHB, 18 h, 37 °C, triplicate
Description: (§3) MICs of compounds were determined following CLSI guidelines using the microbroth dilution method in polypropylene plates. Selected Gram-negative bacterial strains (see Table S2 for strain sources) were taken from glycerol stocks and grown overnight on blood agar. Individual colonies were selected and grown in Tryptic Soy Broth (TSB) to an OD600 of 0.5. Compounds were diluted in Mueller Hinton Broth (MHB) supplemented with Mg^2+ and Ca^2+ at final concentrations of 12 and 20 mg/L, respectively (CAMHB). 50 μL was used for each well, and compounds were assessed in triplicates. Bacterial culture was diluted in CAMHB to 10^6 CFU/mL, yielding 5 × 10^5 CFU/mL upon addition of 50 μL of culture to 50 μL of compound solution. Positive and negative (sterility) controls were present on each plate. Plates were sealed with a semipermeable membrane and incubated for 22 h (A. baumannii) or 18 h (other strains) under shaking at 37 °C.

[7] = system: E. coli JW3594 (ΔwaaD); assay type: cell-based; settings: truncated LPS, CLSI microbroth dilution, CAMHB, 18 h, 37 °C, triplicate
Description: as §3

[8] = system: P. aeruginosa ATCC 10145; assay type: cell-based; settings: P. aeruginosa ATCC 10145; CLSI microbroth dilution, CAMHB, 18 h, 37 °C, triplicate
Description: as §3

[9] = system: K. pneumoniae ATCC 13883; assay type: cell-based; settings: K. pneumoniae ATCC 13883; CLSI microbroth dilution, CAMHB, 18 h, 37 °C, triplicate
Description: as §3

[10] = system: P. aeruginosa 2018-007; assay type: cell-based; settings: P. aeruginosa 2018-007; CLSI microbroth dilution, CAMHB, 18 h, 37 °C, triplicate
Description: as §3

[11] = system: E. coli mcr-1; assay type: cell-based; settings: CLSI microbroth dilution, CAMHB, 18 h, 37 °C, triplicate
Description: as §3

[12] = system: P. aeruginosa NRZ03961; assay type: cell-based; settings: P. aeruginosa NRZ03961; CLSI microbroth dilution, CAMHB, 18 h, 37 °C, triplicate
Description: as §3

[13] = system: A. baumannii ATCC 19606; assay type: cell-based; settings: A. baumannii ATCC 19606; CLSI microbroth dilution, CAMHB, 22 h, 37 °C, triplicate
Description: as §3

[14] = system: E. coli ATCC 25922; assay type: cell-based; settings: E. coli ATCC 25922; CLSI microbroth dilution, CAMHB, 18 h, 37 °C, triplicate
Description: as §3

[15] = system: P. aeruginosa ATCC 27853; assay type: cell-based; settings: P. aeruginosa ATCC 27853; CLSI microbroth dilution, CAMHB, 18 h, 37 °C, triplicate
Description: as §3

[16] = system: E. coli BW25113; assay type: cell-based; settings: E. coli BW25113; CLSI microbroth dilution, CAMHB, 18 h, 37 °C, triplicate
Description: as §3

Which results are given for `CO[C@H]1/C=C/O[C@@]2(C)Oc3c(C)c(O)c4c(O)c(c(/C=N/N5CCN(C)CC5)c(O)c4c3C2=O)NC(=O)/C(C)=C\C=C\[C@H](C)[C@H](O)[C@@H](C)[C@@H](O)[C@@H](C)[C@H](OC(C)=O)[C@@H]1C` [Rifampicin, rifampicin]?
MIC in combination (rifampicin) ([1]; rifampicin in combination with PMBN (4 µg/mL)): 1 µg/mL; MIC in combination (rifampicin) ([1]; rifampicin in combination with PmxB4 (1 µg/mL)): 0.3 µg/mL; MIC in combination (rifampicin) ([1]; rifampicin in combination with ent-PMBN (32 µg/mL)): 2 µg/mL; MIC in combination (rifampicin) ([1]; rifampicin in combination with ent-PmxB4 (8 µg/mL)): 1 µg/mL; MIC ([1]; Escherichia coli, read-out: MIC alone): 8 µg/mL; MIC alone ([2]; E. coli ATCC 25922, checkerboard, substance alone): 8 µg/mL; MIC in combination (rifampicin) ([2]; E. coli ATCC 25922, rifampicin in combination with PMBN (2 µg/mL)): 0.1 µg/mL; MIC in combination (rifampicin) ([2]; E. coli ATCC 25922, rifampicin in combination with PmxB4 (1 µg/mL)): 0.5 µg/mL; MIC in combination (rifampicin) ([2]; E. coli ATCC 25922, rifampicin in combination with ent-PMBN (32 µg/mL)): 2 µg/mL; MIC in combination (rifampicin) ([2]; E. coli ATCC 25922, rifampicin in combination with ent-PmxB4 (8 µg/mL)): 0.1 µg/mL; MIC ([2]; Escherichia coli, ATCC25922, E. coli ATCC 25922, checkerboard, substance alone): 8 µg/mL

Which MIC alone ([2]; ATCC 25922, 18 h) does the source give for `CC(C)C[C@H]1NC(=O)[C@H](Cc2ccccc2)NC(=O)[C@@H](CCN)NC(=O)[C@H](NC(=O)[C@@H](CCN)NC(=O)[C@H](N)[C@H](C)O)CCNC(=O)[C@@H]([C@H](C)O)NC(=O)[C@@H](CCN)NC(=O)[C@@H](CCN)NC1=O` [ent-PMBN] (H-[dT][dDab][dDab][dDab]F[dL][dDab][dDab][dT]; lactam 3-C) here?
The MIC alone was ≥ 256 µg/mL.

What about the “OM disruption (NPN uptake)” value [3] of the same molecule?
The value was “weak OM disruption”.

And the “OM disruption (NPN uptake)” value [4]?
The value was “higher degree of OM perturbation”.

And the “ΔΔH, maximum enthalpy observed after subtraction of dilution control” value [5]?
The value was -4.91 ± 0.03 kcal/mol.

What about the “ΔG, fitted parameter for single site binding” value ([5]; one-site model) of the same molecule?
The value was -7.69 ± 0.06 kcal/mol.

What about the “ΔH, fitted parameter for single site binding” value ([5]; one-site model) of the same molecule?
The value was -5.2 ± 0.03 kcal/mol.

What about the Kd ([5]; one-site model, read-out: KD, fitted parameter for single site binding) of the same molecule?
The Kd was 3.9 ± 0.4 µM.

Which results are given for “Polymyxin B sulfate [PmxB (commercial), reference compound]”?
MIC [6]: 0.06 µg/mL; MIC [7]: 0.06 µg/mL; MIC [8]: 1 µg/mL; MIC [9]: 0.25 µg/mL; MIC [10]: 2 µg/mL; MIC [11]: 4 µg/mL; MIC [12]: 1 µg/mL; MIC [13]: 0.25 µg/mL; MIC [14]: 1 µg/mL; MIC [15]: 1 µg/mL; MIC [16]: 1 µg/mL
